Test system: 233499-124-R-J3-PDC spheroids with HUVEC/MSC, viability
Assay: Anticancer human tumor 233499-124-R-J3-PDC patient-derived colon adenocarcinoma cell line growth inhibition [PI3K]
Conditions: for IC50: curve of first compound; for viability, T/C: stronger effect = lower value
Source text: Combinatorial screen of targeted agents with the PI3K inhibitors inavolisib, alpelisib, duvelisib, and copanlisib in multi-cell type tumor spheroids
A high-throughput screen of multi-cell type tumor spheroids was designed to identify active combinations of targeted small molecules and PI3K pathway inhibitors. Complex spheroids include a stromal component modeled by human endothelial cells (HUVEC) and fibroblasts modeled by human mesenchymal stem cells (MSCs). The concentration ranges selected for each drug and investigational agent were based upon clinically achievable concentrations if the clinical Cmax of the agent was known.
Compounds. The drugs and investigational agents: inavolisib (NSC800729), alpelisib (NSC765974), duvelisib (NSC772469), copanlisib (NSC816437), ipatasertib (NSC767898), afuresertib (NSC778305), talazoparib (NSC767125), sapanisertib (NSC764658), selumetinib (NSC741078), tovorafenib (DAY101, NSC766906), vemurafenib (NSC761431), ravoxertinib (NSC781343), sotorasib (NSC818433), MRTX1133 (NSC 836407), abemaciclib (NSC 768073), palbociclib (NSC758247), venetoclax (NSC 766270), SY5609 (NSC837396), enzalutamide (NSC755605), and darolutamide (NSC825331), were obtained from the National Cancer Institute (NCI) Developmental Therapeutics Program Chemical Repository. The FDA-approved anticancer drug set is available from the NCI Developmental Therapeutics Program. […] The stock solutions were prepared in dimethyl sulfoxide (DMSO, Sigma-Aldrich, St. Louis, MO, cat. D2650) at 800-fold the tested concentration and stored at -70 degrees C prior to their use. All drugs and investigational agents were tested over a range starting from a high concentration at or near the clinical Cmax and decreasing in half-log increments. If the clinical Cmax for an agent had not been determined, the highest concentration tested was 10 microM.
Cell Culture. All cells were maintained in an incubator at 37 degrees C and 5% CO2 with 95% humidity. The PDC lines were cultured according to standard operating procedures established by the NCI PDMR (https://pdmr.cancer.gov/sops/default.htm). All PDCs were thawed and cultured in Matrigel-coated flasks prepared with a working solution of 1X Ham's F-12 nutrient mix, without supplementation (Invitrogen, Waltham, MA, cat. 11765054), 100 U/mL penicillin-streptomycin (Invitrogen, cat. 15140122), and 2.5% Matrigel (Corning Inc., Corning, NY, cat. 354248) for the first three passages. The 354836-022-R-J1-PDC, 475296-252-R-J1-PDC, and 997726-040-R-J2-PDC lines were cultured in 6A media, which includes advanced DMEM/F-12 (Thermo Fisher Scientific, cat. 12634028), 10 mM HEPES (Thermo Fisher Scientific, cat. 15630080), 1X GlutaMAX supplement (Thermo Fisher Scientific, cat. 35050061), 0.1 mg/mL primocin (InvivoGen, San Diego, CA, cat. ant-pm-2), 10% defined fetal bovine serum, heat inactivated (HyClone Laboratories Inc., Logan, UT, cat. SH30070.03HI), 50% L-WRN conditioned media (ATCC, cat. CRL-3276), 1.25 mM N-Acetyl-L-cysteine (Sigma-Aldrich, cat. A9165), 10 mM nicotinamide (Sigma-Aldrich, cat. N0636), 1X B-27 supplement (Thermo Fisher Scientific, cat. 17504044), 1X N-2 supplement (Thermo Fisher Scientific, cat. 17502048), and 10 microM Y-27632 dihydrochloride (Tocris Bioscience, Bristol, United Kingdom, cat. 1254). The 624824-186-R-J2-PDC line was cultured in 6C/Colon 1B media, which includes all 6A media components plus 50 ng/mL human EGF recombinant protein (Thermo Fisher Scientific, cat. PHG0311). […]

[1] = second compound 0.00316 µM, first compound 0.0316 µM
[2] = second compound 0.00316 µM, first compound 0.1 µM
[3] = second compound 0.01 µM, first compound 0.0316 µM
[4] = second compound 0.01 µM, first compound 0.1 µM
[5] = second compound 0.0316 µM, first compound 0.0316 µM
[6] = second compound 0.0316 µM, first compound 0.1 µM
[7] = second compound 0.1 µM, first compound 0.0316 µM
[8] = second compound 0.1 µM, first compound 0.1 µM
[9] = second compound 0.316 µM, first compound 0.0316 µM
[10] = second compound 0.316 µM, first compound 0.1 µM
[11] = second compound 1 µM, first compound 0.0316 µM
[12] = second compound 1 µM, first compound 0.1 µM
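Further: spheroids exposed to agents for seven days before readout.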
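Wherever viability, T/C is given: percent viability relative to DMSO vehicle control taken as 100%.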

## CC(C)n1nc(-c2ccc3oc(N)nc3c2)c2c(N)ncnc21 + CC(Nc1ccc2c(c1)OCCn1cc(N3C(=O)OCC3C(F)F)nc1-2)C(N)=O
Second compound 0.00316 µM
  IC50: > 100 nM
Second compound 0.01 µM
  IC50: > 100 nM
Second compound 0.0316 µM
  IC50: > 100 nM
Second compound 0.1 µM
  IC50: 53.3 nM
Second compound 0.316 µM
  IC50: 15.1 nM
Second compound 1 µM
  IC50: 3.69 nM
Second compound 0.00316 µM, first compound 0.000316 µM
  viability, T/C: 73.5%
Second compound 0.00316 µM, first compound 0.001 µM
  viability, T/C: 90.1%
Second compound 0.00316 µM, first compound 0.00316 µM
  viability, T/C: 88%
Second compound 0.00316 µM, first compound 0.01 µM
  viability, T/C: 95.7%
[1]
  viability, T/C: 81%
[2]
  viability, T/C: 50.2%
Second compound 0.01 µM, first compound 0.000316 µM
  viability, T/C: 97.8%
Second compound 0.01 µM, first compound 0.001 µM
  viability, T/C: 92.7%
Second compound 0.01 µM, first compound 0.00316 µM
  viability, T/C: 105%
Second compound 0.01 µM, first compound 0.01 µM
  viability, T/C: 89.4%
[3]
  viability, T/C: 78.3%
[4]
  viability, T/C: 57.5%
Second compound 0.0316 µM, first compound 0.000316 µM
  viability, T/C: 103%
Second compound 0.0316 µM, first compound 0.001 µM
  viability, T/C: 83%
Second compound 0.0316 µM, first compound 0.00316 µM
  viability, T/C: 85.9%
Second compound 0.0316 µM, first compound 0.01 µM
  viability, T/C: 70.3%
[5]
  viability, T/C: 91%
[6]
  viability, T/C: 60.8%
Second compound 0.1 µM, first compound 0.000316 µM
  viability, T/C: 84%
Second compound 0.1 µM, first compound 0.001 µM
  viability, T/C: 61.3%
Second compound 0.1 µM, first compound 0.00316 µM
  viability, T/C: 66%
Second compound 0.1 µM, first compound 0.01 µM
  viability, T/C: 77%
[7]
  viability, T/C: 66.6%
[8]
  viability, T/C: 29.1%
Second compound 0.316 µM, first compound 0.000316 µM
  viability, T/C: 82.7%
Second compound 0.316 µM, first compound 0.001 µM
  viability, T/C: 49.3%
Second compound 0.316 µM, first compound 0.00316 µM
  viability, T/C: 73.5%
Second compound 0.316 µM, first compound 0.01 µM
  viability, T/C: 46.6%
[9]
  viability, T/C: 52.8%
[10]
  viability, T/C: 24.2%
Second compound 1 µM, first compound 0.000316 µM
  viability, T/C: 49.8%
Second compound 1 µM, first compound 0.001 µM
  viability, T/C: 48.4%
Second compound 1 µM, first compound 0.00316 µM
  viability, T/C: 59.2%
Second compound 1 µM, first compound 0.01 µM
  viability, T/C: 41.2%
[11]
  viability, T/C: 26.3%
[12]
  viability, T/C: 12.3%

## CCCS(=O)(=O)Nc1ccc(F)c(C(=O)c2c[nH]c3ncc(-c4ccc(Cl)cc4)cc23)c1F + CC(Nc1ccc2c(c1)OCCn1cc(N3C(=O)OCC3C(F)F)nc1-2)C(N)=O
Second compound 0.00316 µM
  IC50: 5620 nM
Second compound 0.01 µM
  IC50: 5140 nM
Second compound 0.0316 µM
  IC50: 4720 nM
Second compound 0.1 µM
  IC50: 5020 nM
Second compound 0.316 µM
  IC50: 3380 nM
Second compound 1 µM
  IC50: 1790 nM
[1]
  viability, T/C: 80%
[2]
  viability, T/C: 97.9%
Second compound 0.00316 µM, first compound 0.316 µM
  viability, T/C: 98.6%
Second compound 0.00316 µM, first compound 1 µM
  viability, T/C: 105%
Second compound 0.00316 µM, first compound 3.16 µM
  viability, T/C: 104%
Second compound 0.00316 µM, first compound 10 µM
  viability, T/C: 2.87%
[3]
  viability, T/C: 90.2%
[4]
  viability, T/C: 94.5%
Second compound 0.01 µM, first compound 0.316 µM
  viability, T/C: 97.1%
Second compound 0.01 µM, first compound 1 µM
  viability, T/C: 98.2%
Second compound 0.01 µM, first compound 3.16 µM
  viability, T/C: 84.9%
Second compound 0.01 µM, first compound 10 µM
  viability, T/C: 2.03%
[5]
  viability, T/C: 77.3%
[6]
  viability, T/C: 90.3%
Second compound 0.0316 µM, first compound 0.316 µM
  viability, T/C: 85.8%
Second compound 0.0316 µM, first compound 1 µM
  viability, T/C: 101%
Second compound 0.0316 µM, first compound 3.16 µM
  viability, T/C: 75.8%
Second compound 0.0316 µM, first compound 10 µM
  viability, T/C: 1.54%
[7]
  viability, T/C: 84.8%
[8]
  viability, T/C: 83.9%
Second compound 0.1 µM, first compound 0.316 µM
  viability, T/C: 88.5%
Second compound 0.1 µM, first compound 1 µM
  viability, T/C: 88.3%
Second compound 0.1 µM, first compound 3.16 µM
  viability, T/C: 82.8%
Second compound 0.1 µM, first compound 10 µM
  viability, T/C: 0.93%
[9]
  viability, T/C: 86.6%
[10]
  viability, T/C: 66.6%
Second compound 0.316 µM, first compound 0.316 µM
  viability, T/C: 66.9%
Second compound 0.316 µM, first compound 1 µM
  viability, T/C: 69.2%
Second compound 0.316 µM, first compound 3.16 µM
  viability, T/C: 54.5%
Second compound 0.316 µM, first compound 10 µM
  viability, T/C: 4.16%
[11]
  viability, T/C: 73%
[12]
  viability, T/C: 45.4%
Second compound 1 µM, first compound 0.316 µM
  viability, T/C: 54.9%
Second compound 1 µM, first compound 1 µM
  viability, T/C: 61%
Second compound 1 µM, first compound 3.16 µM
  viability, T/C: 41.8%
Second compound 1 µM, first compound 10 µM
  viability, T/C: 2.26%
